Assay results taken from PMC6467816 (Journal of peptide science : an official publication of the …, 2019).
Peptide text beside a SMILES is read from it.

What was measured:
HOS.CD4.CCR5 cells = assay: MTT; type: cell-based; conditions: concentrations 50 fold higher than IC50 values, 24 hours continuous cellular exposure
[1] = test system: viruses pseudotyped with vesicular stomatitis virus glycoprotein, VSV-G; type: cell-based
[2] = In vitro stability to proteolysis in human serum; type: in vitro ADME; conditions: 24 h treatment, 37 °C, RP-HPLC 280 nm
chymotrypsin = conditions: cited from earlier work
trypsin = conditions: cited from earlier work
[3] = rat, in vivo; cited from earlier work
[4] = Pharmacokinetic analysis after intravenous bolus in rats; type: in vivo, Sprague-Dawley rats

For CC[C@H](C)[C@@H]1NC(=O)[C@H](CC(N)=O)NC(=O)[C@@H](N)CC(=O)NCCCC[C@@H](C(N)=O)NC(=O)[C@H](Cc2c[nH]c3ccccc23)NC(=O)[C@@H]2C[C@H](n3cc(C4=CC=C[CH]4[Fe][CH]4C=CC=C4)nn3)CN2C1=O (stereo partly shown) [AAR029b] (HELM PEPTIDE1{D.N.I.[O=C([C@@H]1C[C@H](n2cc(C3=CC=C[CH]3[Fe][CH]3C=CC=C3)nn2)CN1[*:1])[*:2]].W.K.[am]}$PEPTIDE1,PEPTIDE1,1:R3-6:R3$$$V2.0; N-terminus and C-terminus assumed), which “Toxicity in target HOS.CD4.CCR5 cells” value (HOS.CD4.CCR5 cells) is on record?
The value was “No toxicity”.

What about the “Inhibition of VSV-G pseudotyped virus” value [1] of the same compound?
The value was “did not inhibit”.

And the “Stability to human serum protease mixture” value [2]?
Its value is “intact”.

And the “Resistance to proteolysis by chymotrypsin” value (chymotrypsin)?
The value was “resistant to proteolysis”.

And the “Resistance to proteolysis by trypsin” value (trypsin)?
Its value is “resistant to proteolysis”.

Which Clearance rate [3] does the source give for COc1ccnc2[nH]cc(C(=O)C(=O)N3CCN(C(=O)c4ccccc4)C[C@H]3C)c12 [BMS-378806] here?
Its Clearance rate is ~ 1800 mL/h.

Which results are given for CC[C@H](C)[C@@H]1NC(=O)[C@H](CC(N)=O)NC(=O)[C@@H](NC(=S)Nc2ccc3c(c2)C(=O)OC32c3ccc(O)cc3Oc3cc(O)ccc32)CC(=O)NCCCC[C@@H](C(N)=O)NC(=O)[C@H](Cc2c[nH]c3ccccc23)NC(=O)[C@@H]2C[C@H](n3cc(C4=CC=C[CH]4[Fe][CH]4C=CC=C4)nn3)CN2C1=O (stereo partly shown) [FITC-AAR029b] (HELM PEPTIDE1{[O=C1OC2(c3ccc(O)cc3Oc3cc(O)ccc32)c2ccc(NC(=S)[*:2])cc21].D.N.I.[O=C([C@@H]1C[C@H](n2cc(C3=CC=C[CH]3[Fe][CH]3C=CC=C3)nn2)CN1[*:1])[*:2]].W.K.[am]}$PEPTIDE1,PEPTIDE1,2:R3-7:R3$$$V2.0; C-terminus assumed)?
Stability to human serum protease mixture [2]: intact; Time over which plasma level was detectable ([4]; after tail vein administration to rats, fluorescence): ≤ 7 h; AUC(0-inf) ([4]; rat, in vivo, iv, 0.01 mg/kg): 40 ± 40 ng·h/mL; Vd ([4]; rat, in vivo, iv, 0.01 mg/kg): 0.542 ± 0.119 L; clearance ([4]; rat, in vivo, iv, 0.01 mg/kg, CL (ml/h), clearance, intravenous bolus 0.01 mg/kg FITC (equiv), Sprague-Dawley rats): 2.27 mL/min; half-life ([4]; rat, in vivo, iv, 0.01 mg/kg, t1/2α (h), distribution half life, intravenous bolus 0.01 mg/kg FITC (equiv), Sprague-Dawley rats): 0.029 ± 0.01 h; half-life ([4]; rat, in vivo, iv, 0.01 mg/kg, t1/2β (h), elimination half life, intravenous bolus 0.01 mg/kg FITC (equiv), Sprague-Dawley rats): ~3 h
